Data reported in patent US8193185B2, “Use of tryptanthrin compounds for immune potentiation” (Novartis Vaccines and Diagnostics, Inc., priority 2003, dated 2012).

System: human peripheral blood mononuclear cells (PBMC)
Assay: HTS assay for small molecule immune potentiators: TNF-a production by human PBMC (sandwich ELISA)
Type: cell-based
Settings: human PBMC 500,000 per mL, 18 h at 37° C., secreted TNF by sandwich ELISA
Source text: Candidate small molecule immune potentiators can be identified in vitro. Compounds are screened in vitro for their ability to stimulate human peripheral blood mononuclear cells to produce cytokines (e.g. TNF-a and IL-12 p40). Apoptosis inducing small molecules may be identified having this activity. These small molecule immunopotentiators have potential utility as adjuvants and immunotherapeutics.
In an assay procedure (High Throughput Screening (HTS)) for small molecule immune potentiators (SMIPs), human peripheral blood mononuclear cells (PBMC), 500,000 per mL in RPMI 1640 medium with 10% FCS, are distributed in 96 well plates (100,000 per well) already containing 5 μM of compound in DMSO. The PBMCs are incubated for 18 h at 37° C. in 5% CO2. Their ability to produce cytokines in response to the small molecule compounds is determined using a modified sandwich ELISA.
Briefly supernatants from the PBMC cultures are assayed for secreted TNF using a primary plate bound antibody for capture followed by a secondary biotinylated anti-TNF antibody forming a sandwich. The biotinylated second antibody is then detected using streptavidin-Europium and the amount of bound europium is determined by time resolved fluorescence. Compounds are screened for their TNF inducing activity that is measured in the assay as increased Europim counts over cells incubated in RPMI medium alone. “Hits” are selected based on their TNF-inducing activity relative to an optimal dose of lipopolysaccaride LPS (1 μg/ml), a strong TNF inducer. The robustness of the assay and low backgrounds have allowed for the routine selection of hits with ˜10% of LPS activity that is normally between 5-10× background (cells alone). Selected hits are then subjected to confirmation for their ability to induce cytokines from multiple donors at decreasing concentrations. Those compounds with consistent activity at or below 5 μM are considered confirmed for the purposes of this assay. The assay is readily modified for screening for compounds effective at higher or lower concentrations.

SMILES | minimal effective concentration [µM]
O=C1c2cc([N+](=O)[O-])ccc2-n2c1nc1ccccc1c2=O [Compound 1001, 8-nitroindolo[2,1-b]quinazoline-6,12-dione] | ≤ 1.5
O=C1c2cc(F)ccc2-n2c1nc1ccc(Cl)cc1c2=O [Compound 1002, 2-chloro-8-fluoroindolo[2,1-b]quinazoline-6,12-dione] | ≥ 5
O=C1c2cc(F)ccc2-n2c1nc1ccc(F)cc1c2=O [Compound 1003, 2,8-difluoroindolo[2,1-b]quinazoline-6,12-dione] | ≥ 5
O=C1c2cc(F)ccc2-n2c1nc1cc(F)ccc1c2=O [Compound 1004, 3,8-difluoroindolo[2,1-b]quinazoline-6,12-dione] | ≤ 1.5
O=C1c2cccc(F)c2-n2c1nc1ccccc1c2=O [Compound 1005, 10-fluoroindolo[2,1-b]quinazoline-6,12-dione] | ≤ 1.5
O=C1c2cc(F)ccc2-n2c1nc1cccc(F)c1c2=O [Compound 1006, 1,8-difluoroindolo[2,1-b]quinazoline-6,12-dione] | ≤ 1.5
Cc1cccc2nc3n(c(=O)c12)-c1ccc(F)cc1C3=O [Compound 1007, 8-fluoro-1-methylindolo[2,1-b]quinazoline-6,12-dione] | ≤ 1.5
O=C1c2cc(F)cc(F)c2-n2c1nc1ccccc1c2=O [Compound 1008, 8,10-difluoroindolo[2,1-b]quinazoline-6,12-dione] | ≤ 1.5
O=C1c2cc(F)ccc2-n2c1nc1c(F)cccc1c2=O [Compound 1009, 4,8-difluoroindolo[2,1-b]quinazoline-6,12-dione] | ≥ 5
O=C1c2cc(I)ccc2-n2c1nc1c(Br)cc(Br)cc1c2=O [Compound 1010, 2,4-dibromo-8-iodoindolo[2,1-b]quinazoline-6,12-dione] | ≥ 5
Cc1cc(Cl)cc2c1-n1c(nc3ccccc3c1=O)C2=O [Compound 1011, 8-chloro-10-methylindolo[2,1-b]quinazoline-6,12-dione] | ≥ 5
CC(C)(C)OC(=O)N1CCN(c2cc3nc4n(c(=O)c3cc2F)-c2ccc(I)cc2C4=O)CC1 [Compound 1012, 1,1-dimethylethyl 4-(2-fluoro-8-iodo-6,12-dioxo-6,12-dihydroindolo[2,1-b]quinazolin-3-yl)piperazine-1-carboxylate] | ≥ 5
O=C1c2cc(I)ccc2-n2c1nc1c(Br)cc(Br)c(F)c1c2=O [Compound 1013, 2,4-dibromo-1-fluoro-8-iodoindolo[2,1-b]quinazoline-6,12-dione] | ≤ 1.5
O=C1c2cc(I)ccc2-n2c1nc1c(Br)cc(Br)c(Cl)c1c2=O [Compound 1014, 2,4-dibromo-1-chloro-8-iodoindolo[2,1-b]quinazoline-6,12-dione] | ≤ 1.5
O=C1c2ccccc2-n2c1nc1c(Br)cc(Br)c(F)c1c2=O [Compound 1015, 2,4-dibromo-1-fluoroindolo[2,1-b]quinazoline-6,12-dione] | ≤ 1.5
O=C1c2cc(Cl)ccc2-n2c1nc1ccc(I)cc1c2=O [Compound 1016, 8-chloro-2-iodoindolo[2,1-b]quinazoline-6,12-dione] | ≤ 1.5
O=C1c2cc(Cl)ccc2-n2c1nc1cc(F)ccc1c2=O [Compound 1017, 8-chloro-3-fluoroindolo[2,1-b]quinazoline-6,12-dione] | ≤ 1.5

SMILES | minimal effective concentration [µM]
O=C1c2cc(Cl)ccc2-n2c1nc1cc(N3CCCCC3)ccc1c2=O [Compound 1018, 8-chloro-3-piperidin-1-ylindolo[2,1-b]quinazoline-6,12-dione] | ≥ 5
O=C1c2cc(F)ccc2-n2c1nc1c(O)cccc1c2=O [Compound 1019, 8-fluoro-4-hydroxyindolo[2,1-b]quinazoline-6,12-dione] | ≤ 1.5
CCNC(=O)c1ccc2c(c1)C(=O)c1nc3c(OC)cccc3c(=O)n1-2 [Compound 1020, N-ethyl-4-(methyloxy)-6,12-dioxo-6,12-dihydroindolo[2,1-b]quinazoline-8-carboxamide] | ≤ 1.5
O=C1c2cc(OC(F)(F)F)ccc2-n2c1nc1ccccc1c2=O [Compound 1021, 8-[(trifluoromethyl)oxy]indol o[2,1-b]quinazoline-6,12-dione] | ≥ 5
O=C1c2cc(OC(F)(F)F)ccc2-n2c1nc1cc(F)ccc1c2=O [Compound 1022, 3-fluoro-8-[(trifluoromethyl)oxy]indol o[2,1-b]quinazoline-6,12-dione] | ≤ 1.5
O=C1c2cc(OC(F)(F)F)ccc2-n2c1nc1cc(SCCO)ccc1c2=O [Compound 1023, 3-[(2-hydroxyethyl)thio]-8-[(trifluoromethyl)oxy]indol o[2,1-b]quinazoline-6,12-dione] | ≤ 1.5
O=C1c2ccccc2-n2c1nc1ncccc1c2=O [Compound 1024, pyrido[2′,3′:4,5]pyrimido[1,2-a]indole-5,11-dione] | ≤ 1.5
O=C1c2cc(F)ccc2-n2c1nc1ncccc1c2=O [Compound 1025, 9-fluoropyrido[2′,3′:4,5]pyri-mido[1,2-a]indole-5,11-dione] | ≤ 1.5
O=C1c2cc(Br)ccc2-n2c1nc1ncccc1c2=O [Compound 1026, 9-bromopyrido[2′,3′:4,5]pyri-mido[1,2-a]indole-5,11-dione] | ≤ 1.5
O=C1c2cc(Cl)ccc2-n2c1nc1ncccc1c2=O [Compound 1027, 9-chloropyrido[2′,3′:4,5]pyri-mido[1,2-a]indole-5,11-dione] | ≤ 1.5
O=C1c2cc(I)ccc2-n2c1nc1ncccc1c2=O [Compound 1028, 9-iodopyrido[2′,3′:4,5]pyrimi-do[1,2-a]indole-5,11-dione] | ≤ 1.5
CCOC(=O)c1ccc2c(c1)C(=O)c1nc3ncccc3c(=O)n1-2 [Compound 1029, ethyl 5,11-dioxo-5,11-dihydropyrido[2′,3′:4,5]py-rimido[1,2-a]indole-9-carboxylate] | ≤ 1.5
CCCCCCCCNS(=O)(=O)c1ccc2c(c1)C(=O)c1nc3ncccc3c(=O)n1-2 [Compound 1030, N-octyl-5,11-dioxo-5,11-dihydropyrido[2′,3′:4,5]py-rimido[1,2-a]indole-9-sulfonamide] | ≤ 1.5
O=C1c2c(cccc2C(F)(F)F)-n2c1nc1ncccc1c2=O [Compound 1031, 10-(trifluoromethyl)pyrido[2′, 3′:4,5]pyrimido[1,2-a]indole-5,11-dione] | ≤ 1.5
CCOP(=O)(CCCC/C=C/c1ccc2c(c1)C(=O)c1nc3ncccc3c(=O)n1-2)OCC [Compound 1032, diethyl (5E)-6-(5,11-dioxo-5,11-dihydropyrido[2′,3′:4,5]py-rimido[1,2-a]indol-9-yl)hex-5-enylphosphonate] | ≥ 5
CC(=O)OCCCC/C=C/c1ccc2c(c1)C(=O)c1nc3ncccc3c(=O)n1-2 [Compound 1033, (5E)-6-(5,11-dioxo-5,11-dihydropyrido[2′,3′:4,5]py-rimido[1,2-a]indol-9-yl)hex-5-enyl acetate] | ≤ 1.5
O=C1c2cc(C(F)(F)F)ccc2-n2c1nc1ncccc1c2=O [Compound 1034, 9-(trifluoromethyl)pyrido[2′, 3′:4,5]pyrimido[1,2-a]indole-5,11-dione] | ≥ 5
